Read-outs that look alike come from different tables or passages of the source.
Experiments:
[1] = system: differentiated HL60 cells; assay: Chemokinesis (fMLP in upper and lower Boyden chambers); type: cell-based, human; conditions: fMLP in both chambers; result in words
Experimental: Same as A with purified human neutrophils.
Chemotaxis was assayed using a Boyden chamber (Neuro Probe, Gaithersburg, Md.) using 3-μm polyvinylpyrrolidone-free polycarbonate filters (Neuro Probe). HL60 cells (differentiated for 4 days) were washed with and resuspended in HBSS containing 1% bovine serum albumin to a final concentration of 1×10^6 cells/ml. Primary human neutrophils were washed and resuspended in NaCl buffer (140 mM NaCl, 4 mM KCl, 10 mM D-glucose, 10 mM HEPES, pH 7.4, 1 mM MgCl2, and 1 mM CaCl2) to a final concentration of 1×10^6 cells/mi. Chemoattractant [1 μM granulocyte-macrophage-colony stimulating factor (GM-CSF), 10 nM IL-8, or 250 nM fMLP; Sigma Aldrich] was added to the bottom chamber in HBSS containing 1% bovine serum albumin. Cell suspensions (0.2×10^6 cells/well) were added to the top wells of the Boyden chamber and allowed to migrate for 1 h at 37° C. […] Chemotactic HL60 cells were scored by counting three microscope fields and subtracting the number of cells from fMLP wells as background. […] For all the small molecules, effects of the compounds on chemokinesis was analyzed by measuring chemotaxis in the presence of 250 nM fMLP in both the upper and lower chambers of the Boyden Chamber and measuring changes in transwell migration. […]

[2] = Toxicity on repeated daily dosing in animals; type: in vivo
[3] = molecular target: Gβ1γ2 (UniProt P54311+P63212); assay: Surface plasmon resonance direct binding to Gβ1γ2; set-up: made in house; host or cells: Sf9 insect cells (baculovirus); conditions: for kon: read-out: association rate constant (kon, ka); for koff: read-out: dissociation rate constant (koff, kd)
From the text: To understand the protein binding characteristics of compounds a surface plasmon resonance (SPR) method was developed for monitoring direct small molecule binding to G βγ subunits using a Reichert SPR instrument. In addition to binding affinity, binding kinetics can be obtained from this analysis. […] To obtain the data in herein, 3000 refractive index units (RIU) of Gβ1γ2 was immobilized to maximize detection of small molecule binding (Karlsson et al., 2006; Markgren et al., 2001; Rich et al., 2001) and compounds were injected at 75 μl/min and changes in bulk refractive index were accounted for in a reference flow cell. […] This method is used to analyze compound binding kinetics and calculate equilibrium binding constants to test the mechanisms of action and selectivity of various “hot spot” binding compounds.
Direct binding of “hot spot” binding small molecules was assessed using the Reichert SR7000 Surface Plasmon Resonance dual chamber instrument equipped with an autosampler (Reichert, Depew, N.Y.). To activate the sensor chip surface, a mixture of 0.1 M 1-ethyl-3-(3-dimethylaminopropyl) carbodiimide hydrochloride and 0.05 M N-hydroxysuccinimide was injected (flow rate 5 μl/min) over the sensor surface. Streptavidin (100 μg/ml; prepared in 20 mM sodium acetate buffer, pH 5.5) was coupled to the sensor chip surface followed by quenching the remaining activated carboxyl groups with 1 M ethanolamine, pH 8.5. bGβ1γ2 was conjugated to the streptavidin-coated chip in running buffer (50 mM HEPES, pH 7.6, 1 mM EDTA, 100 mM NaCl, 0.1% C12E10, and 1 mM dithiothreitol) to achieve 2000 micro-refractive index units. A second reference cell was treated similarly, but bGβ1γ2 was excluded. Direct binding of small molecules was tested out at room temperature with a flow rate of 75 μl/min. Compounds were prepared in running buffer and injected for 10 min followed by a dissociation phase of 10 min. The obtained sensorgrams were corrected for nonspecific background by running the same experiment in series over an identical sensor surface with immobilized streptavidin, blocked with biotin, without bGβγ. […] Best fit kinetic parameters were determined using kinetic titration model and ClampXP ver. 3.5, which accounts for incomplete dissociation between injections (Karisson et al., 2006).

[4] = system: PLCβ2; assay: Gβ1γ2-dependent activation of purified PLCβ2; type: biochemical
Experimental: Purified PLCβ2 (0.25 ng) was assayed in the presence (▴) or absence (▪) of 100 nM purified Gβ1γ2. […] Assays contained 10 ng of purified p101/p110 PI3Kγ heterodimer with or without 100 nM purified Gβ1γ2. Left panel: (▴) 100 nM Gβ1γ2 or (▪) no βγ. […] M119 or M201 and 25 nM purified GRK2 were added simultaneously to 250 nM biotinylated Gβ1γ2 (bGβ1γ2) immobilized on streptavidin agarose. GRK2 was detected with antibody to GRK2. Data are representative (mean ±SEM, except D) repeated at least three times each. […] 30 nM bGβ1γ2 was incubated with either 30 nM PLCβ2 or PLCβ3 in the presence or absence of M119 or M201 for 16 h at 4° C. before precipitation with avidin agarose and detection with PLCβ2,or Gβ antibodies. […] Same as 4E with PLCβ3.
The ability of NSC119910 analogs to selectively modulate activation PLC-β2 and -β3 was analyzed. In this assay, PLC-β2 and PLC-β3 were purified and PLC enzymatic activity was measured in the presence or absence of purified βy and in the presence or absence of analog.
Nevertheless, M119 and M201 were tested in in vitro reconstitution assays of Gβγ-dependent activation of PLCβ2, PLCβ3 and PI3Kγ and binding to GRK2. […] These are only two of multiple diverse compounds identified, indicating potential for multiple modes of Gβγ-dependent target modulation by these small molecules.

[5] = system: M3 muscarinic receptor-dependent Ca2+ release in HEK-293 cells; assay: Carbachol-dependent Ca2+ release in HEK-293 cells expressing M3 muscarinic receptor; type: cell-based; conditions: 10 μM; result in words

Sequence of Gβ1γ2 (P54311 whole entry): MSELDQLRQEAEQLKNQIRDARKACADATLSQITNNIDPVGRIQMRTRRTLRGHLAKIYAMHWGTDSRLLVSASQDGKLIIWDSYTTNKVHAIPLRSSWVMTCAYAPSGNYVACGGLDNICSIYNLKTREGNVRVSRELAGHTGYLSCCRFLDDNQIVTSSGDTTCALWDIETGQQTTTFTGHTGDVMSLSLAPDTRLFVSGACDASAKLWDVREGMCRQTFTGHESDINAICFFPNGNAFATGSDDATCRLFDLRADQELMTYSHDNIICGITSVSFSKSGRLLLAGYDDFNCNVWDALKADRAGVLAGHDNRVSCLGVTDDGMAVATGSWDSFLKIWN
Sequence of Gβ1γ2 (P63212 2-68 limits assumed): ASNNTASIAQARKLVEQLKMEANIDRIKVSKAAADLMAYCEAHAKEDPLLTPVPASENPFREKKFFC

Row | Kd ([3]; SPR, read-out: Kd) | SMILES | effect on chemokinesis [1] | toxicity in intact animals and histology of lung, liver, brain, heart and kidney ([2]; 10, 30 and 100 mg/kg/day daily injections, two weeks) | kon ([3]; SPR) | koff ([3]; SPR) | IC50 ([4]; read-out: IC50 for attenuation of Gβ1γ2-dependent activation of PLCβ2) | effect on carbachol-dependent increases in Ca^2+ [5] | toxicity ([2]; 100 mg/kg/day intraperitoneal, one week) | Kd [3] | effect on Gβ1γ2-dependent activation of PLCβ2 ([4]; result in words)
1 | ~0.4 µM | O=C(O)c1ccccc1-c1c2ccc(=O)c(O)c-2oc2c(O)c(O)ccc12 (racemic) [Gallein] | Neither M119 nor gallein had any effects | nor any overt toxicity | 1130 ± 17 M⁻¹ s⁻¹ | 0.00043 s⁻¹ |  |  |  |  | 
2 |  | O=C(O)C1CCCCC1c1c2ccc(=O)c(O)c-2oc2c(O)c(O)ccc12 (stereo not shown) [Compound M119, cyclohexanecarboxylic acid, 2-(4,5,6-trihydroxy-3-oxo-3H-xanthen-9-yl)-(9cl)] | Neither M119 nor gallein had any effects |  | 2000 M⁻¹ s⁻¹ | 0.0002 s⁻¹ | 3 µM | no effect | no overt toxicity was observed | 0.1 µM | 
3 |  | O=C(O)C1CCCCC1c1c2ccc(=O)cc-2oc2cc(O)ccc12 (stereo not shown) [Compound M119B] |  |  |  |  |  |  |  |  | did not have effects
